The structures appear in SMILES notation.

In assay [1] the test system is ETs (ET-1, ET-2, ET-3). Nature of the assay: Plasma endothelin levels after insulin (RIA). Format: in vivo. Conditions: rats, bpV(phen) 0.5 mg/100 g b.w. i.p. 16 hours before insulin. How it is done:
The data presented in Table III show the effect of bpV(phen) on the plasmatic levels of ETs. […] Two minutes following insulin administration (1.5 μg/100 g b.w, or vehicle), the plasma levels of ETs were determined. Insulin administration induced a strong increase of seric ET concentration (54). […] In addition, bpV(phen) decreased the insulin-stimulated levels of plasmatic ETs below control levels. […] ETs (ET-1, ET-2, ET-3) were measured by RIA (Amersham kit RPA 555) after lyophilization and extraction on C2 columns (500 mg). Results are mean ±SEM, p<0.0209, control (n=4) vs Insulin, pV (n=3).

Assay [2] concerns air pouch exudates (leukocyte recruitment, pro-inflammatory mediators). The assay is described as follows: Murine air pouch model, L. major intra-pouch injection. Format: in vivo, BALB/c mice. On the procedure:
FIG. 6: Neutrophils, eosinophils and MØ recruited in air pouch exudates of bpV(phen)-treated BALB/c mice in response to L. major promastigotes intra-pouch injection. Air pouch exudates were collected from animals injected with endotoxin-free PBS, LPS (20 μg/ml), L. major and bpV(phen) (500 nM i.p., 2 hour)+L. major, 6 hr post-inoculation. Each time point represents the mean±SD (n=4 mice) of 2 experiments similarly performed.
FIG. 7: In vivo Leishmania-induced pro-inflammatory mediator generations in pV-treated mice. (A) Nitrate level determination in air pouch exudates collected 6 hr post-inoculation of endotoxin-free PBS, L. major and bpV(phen) followed by L. major has been performed. Values are the mean±SEM of 2 experiments performed independently. (B) Evaluation of pro-inflammatory cytokines (IL-6 and IL-1β) and chemokines (MCP-1 and MIP-2) secreted in air pouch exudates collected as described above were measured by ELISA as described in more detail below. Values are the mean±SEM of 2 experiments performed independently. […] IL-6, IL-1β, MCP-1 and MIP-2 secretion were respectively 12.8-, 2-, 8- and 6.8-time more secreted in L. major -injected bpV(phen)-treated animals compared to L. major alone. PBS control was equal to background.
With the use of a murine air pouch model, we investigated early inflammatory events that occur following L. major skin injection in bpV(phen)-treated animals (FIG. 6).
In parallel to this experiment, in vivo generation of Leishmania-induced NO and pro-inflammatory mediators in bpV(phen)-treated mice were measured in air pouch exudates (FIG. 7).

The subject of assay [3] is Rat aorta rings. The assay is described as follows: Rat aortic ring assay (cell/microvessel migration in fibrin gel). It counts as cell-based. From the text: FIG. 3: Micrographs of the cell migration from aortic rings embedded in fibrin (×12).
FIG. 4: Quantification of the cell migration from aortic rings in the presence of orthovanadate (plain bars); bpV(phen) (light gray bars); and bpV(pic) (dark gray bars). The control appears as an empty bar. Means and standard errors of the means are presented.
Rat aorta rings were embedded in fibrin matrix as previously described (107). Thoracic aortas excised from adult rats were rinsed in Hank's balanced salt solution (HBSS), and cleansed of periadventitial. One-mm long aortic rings were sectioned and rinsed in culture medium. Each of the aortic rings were then embedded in fibrin gel matrix. Migration of microvessels in fibrin gel was quantified by measuring the distance from the external surface of rat aortic rings towards the migrating vessels. Measurements were performed at day 15 by digitizing morphometry with a NIH image analysis system (FIGS. 3 and 4).

Assay [4] has as its system Leishmania major. Nature of the assay: Leishmania vaccination trial (adjuvant). Details: species or system BALB/c mice. The conditions noted are these: in vivo, Leishmania infection. How it is done:
FIG. 10: Use of bpV(phen) as an adjuvant in Leishmania vaccination trial. BALB/c mice were inoculated with soluble Leishmania major antigen (SLA; 100 μg) with or without daily injection of bpV(phen) ([…]) for 5 days. Two weeks later animals received a second set of treatment as above. Control animals received either PBS or bpV(phen) alone without any SLA. At 4 weeks post-vaccination, animals were challenged with 5 million Leishmania major stationary phase promastigotes injected in the right hind footpad. Progression of infection was followed by measuring footpad thickness with a caliper on a weekly basis. Differences measured for reduced footpad thickness were significant (p<0.01, Student's t test, n=5-10 animals per group) over their respective controls.
In the past, use of total and soluble Leishmania antigen (SLA) for vaccination has been reported and permitted some levels of protection against infectious challenges (85). Using a murine model, we have tested whether bpV(phen)-modulated cytokine and chemokine generation (as reported above) in combination with SLA administration could lead to protection against Leishmania infection. Mice have received PBS and bpv(phen) as controls, and SLA (100 μg) with or without daily bpV(phen) injection (500 nM, 5 days). All injections were done intra-peritoneally. […]

The mark [5] stands for this setting: L. major-injected bpV(phen)-treated animals, 6 hr, ELISA.
The mark [6] stands for this setting: bpV(phen)-treated + L. major, 6 hr.

With `O.O.O.OO.OO.[K+].[OH-].[V].c1cnc2c(c1)ccc1cccnc12` [bpV(phen), potassium bisperoxo(1,10-phenanthroline)oxovanadate], the “insulin-induced increase of seric ET concentration” value in assay [1] is reported as “completely abolished”. For the same molecule, the Plasma endothelins in assay [1] (two minutes after insulin 1.5 μg/100 g b.w., mean ±SEM, n=3) was determined as 77.68 ± 3.08 pg/mL. Moreover, the “NO generation (nitrate level) in air pouch exudates in response to L. major infection” value in assay [2] (6 hr post-inoculation) was “enhanced generation”. Besides, in assay [2] (setting [5]), the “IL-1β secretion in air pouch exudates, compared to L. major alone” value is on record as 2 time; the “IL-6 secretion in air pouch exudates, compared to L. major alone” value is listed as 12.8 time; the “MCP-1 secretion in air pouch exudates, compared to L. major alone” value is listed as 8 time; the “MIP-2 secretion in air pouch exudates, compared to L. major alone” value is recorded as 6.8 time. For the same molecule, the “recruitment of cells in air pouch exudates” value in assay [2] (bpV(phen) 500 nM i.p., 2 hour + L. major 10^7 parasites/ml, 6 hours post-injection, vs L. major alone) was “five times greater”. In assay [2] (setting [6]), the “recruited leukocytes that were eosinophils” value was 18%, the “recruited leukocytes that were macrophages” value was 12% and the “recruited leukocytes that were neutrophils” value is given as approximately 70%. The “cell migration from aortic rings” value in assay [3] (1 μM, compared to control) is “impaired”. The “cell migration from aortic rings” value in assay [3] (3.5 μM) was “strong inhibition”. Further, in assay [4], the “protection against infectious challenge (adjuvant potential)” value is reported as “complete protection”.
